Experimental findings from US4888287A, “Rapid differentiation of fungi from bacteria using polyene antibiotics” (Eastman Kodak Company, priority 1986, dated 1989) are described below.

One data set can be described thus: Reduction potential E1/2 of the quinone nucleus of RIND compounds (Table I). In kind it is physicochemical. As to conditions: quinone nucleus with H in place of the releasing group; aqueous emulsion, DMF, nonionic surfactant, phosphate buffer pH 7; standard calomel electrode. An excerpt: Examples of such nuclei are presented below.
Preferably, the E1/2 is from about +100 mV to about +400 mV as measured in water, or from about -650 to about -300 mV as measured in acetonitrile. […] Further details of measuring the E1/2 are described below prior to Table I. The desired E1/2 is achieved by appropriate electron withdrawing groups on the CAR-nucleus, or by a strained fused ring attached to the nucleus or by a combination of both.
Representative RIND compounds are listed in Table I below in reference to the following structure: [drawing 3] The E1/2 values in Table I were determined for the quinone nucleus of this structure having a hydrogen atom in place of [drawing 4] The E1/2 values (where available) were measured in an aqueous emulsion of the quinone dissolved in N,N-dimethylformamide, a nonionic surfactant (for example, TRITON X-100) and sodium phosphate buffer (pH 7). A standard calomel electrode was used as a standard. Some E1/2 values (denoted by *) were measured in acetonitrile using a saturated calomel electrode as a standard. E1/2 values not available are denoted by "NA".
On to `CN(CC1=C(c2ccccc2)C(=O)C2=C(CCC2)C1=O)C(=O)Oc1ccc2c3c(cccc13)C(=O)C=C2` [XXX], for which the E1/2 entry is reported as “+222 mV”. Same read-out and setting: as for `CN(CC1=C(c2ccccc2)C(=O)C2=C(CCCC2)C1=O)C(=O)Oc1ccc(N=Nc2ccc([N+](=O)[O-])cc2S(C)(=O)=O)c2c(NS(=O)(=O)c3cccc(S(N)(=O)=O)c3)cccc12` [VI], the entry is “+180 mV”. Same read-out and setting: to `CC(C1=C(CN(C)C(=O)Oc2ccc(N=Nc3ccc([N+](=O)[O-])cc3S(C)(=O)=O)c3c(NS(=O)(=O)c4cccc(S(N)(=O)=O)c4)cccc23)C(=O)C(C(C)c2ccc([N+](=O)[O-])cc2)=C(CN(C)C(=O)Oc2ccc(N=Nc3ccc([N+](=O)[O-])cc3S(C)(=O)=O)c3c(NS(=O)(=O)c4cccc(S(N)(=O)=O)c4)cccc23)C1=O)c1ccc([N+](=O)[O-])cc1` (stereo not shown) [II] belongs “+236 mV”; to `CC(C)NS(=O)(=O)c1ccc(C2=C(CN(C)C(=O)Oc3ccc(N=Nc4ccc([N+](=O)[O-])cc4S(C)(=O)=O)c4c(NS(=O)(=O)c5cccc(S(N)(=O)=O)c5)cccc34)C(=O)C3=C(CCCC3)C2=O)cc1` [VIII], “+212 mV”; to `CC1CCC(C)C2=C1C(=O)C(CN(C)C(=O)Oc1ccc(N=Nc3ccc([N+](=O)[O-])cc3S(C)(=O)=O)c3c(NS(=O)(=O)c4cccc(S(N)(=O)=O)c4)cccc13)=C(c1ccccc1)C2=O` (stereo not shown) [XXVII], “+122 mV”. Consider `CN(CC1=C(c2ccc(C#N)cc2)C(=O)C2=C(CCCC2)C1=O)C(=O)Oc1ccc(N=Nc2ccc([N+](=O)[O-])cc2S(C)(=O)=O)c2c(NS(=O)(=O)c3cccc(S(N)(=O)=O)c3)cccc12` [IX], for which the E1/2 entry is reported as “+220 mV”. The same measure, in the same setting: to `CN(CC1=C(c2ccc(C#N)cc2)C(=O)C2=C(CC=CC2)C1=O)C(=O)Oc1ccc(N=Nc2ccc([N+](=O)[O-])cc2S(C)(=O)=O)c2c(NS(=O)(=O)c3cccc(S(N)(=O)=O)c3)cccc12` [XVII] belongs “+240 mV”; to `CC(=O)c1ccc(C2=C(CN(C)C(=O)Oc3ccc(N=Nc4ccc([N+](=O)[O-])cc4S(C)(=O)=O)c4c(NS(=O)(=O)c5cccc(S(N)(=O)=O)c5)cccc34)C(=O)C3=C(CCCC3)C2=O)cc1` [XIII], “+212 mV”. Turning to `CN(CC1=C(c2ccc([N+](=O)[O-])cc2)C(=O)C2=C(CCCC2)C1=O)C(=O)Oc1ccc(N=Nc2ccc([N+](=O)[O-])cc2S(C)(=O)=O)c2c(NS(=O)(=O)c3cccc(S(N)(=O)=O)c3)cccc12` [VII], the E1/2 entry is reported as “+236 mV”. Still for that read-out and setting: to `CN(CC1=C(c2cc([N+](=O)[O-])cc([N+](=O)[O-])c2)C(=O)C2=C(CCCC2)C1=O)C(=O)Oc1ccc(N=Nc2ccc([N+](=O)[O-])cc2S(C)(=O)=O)c2c(NS(=O)(=O)c3cccc(S(N)(=O)=O)c3)cccc12` [XI] belongs “+186 mV”; to `CN(CC1=C(c2ccccc2)C(=O)C2=C(C1=O)C1C=CC2C1)C(=O)Oc1ccc(N=Nc2ccc([N+](=O)[O-])cc2S(C)(=O)=O)c2c(NS(=O)(=O)c3cccc(S(N)(=O)=O)c3)cccc12` (stereo not shown) [XIX], “+242 mV”; to `CN(CC1=C(c2cc(Cl)ccc2Cl)C(=O)C2=C(CCC2)C1=O)C(=O)Oc1ccc(N=Nc2ccc([N+](=O)[O-])cc2S(C)(=O)=O)c2c(NS(=O)(=O)c3cccc(S(N)(=O)=O)c3)cccc12` [XXIV], “+236 mV”. As to `CCCCCCCCCCCCC1CC2=C(C1)C(=O)C(c1ccccc1)=C(CN(C)C(=O)Oc1ccc(N=Nc3ccc([N+](=O)[O-])cc3S(C)(=O)=O)c3c(NS(=O)(=O)c4cccc(S(N)(=O)=O)c4)cccc13)C2=O` (stereo not shown) [XXV], the E1/2 entry was “+222 mV”. Still for that read-out and setting: as for `CC1=C(C)C(=O)C(c2ccccc2)=C(CN(C)C(=O)Oc2ccc(N=Nc3ccc([N+](=O)[O-])cc3S(C)(=O)=O)c3c(NS(=O)(=O)c4cccc(S(N)(=O)=O)c4)cccc23)C1=O` [XXXVI], the entry is “+144 mV”. Same read-out and setting: to `CN(CC1=C(c2ccccc2)C(=O)C2=C(CCC2)C1=O)C(=O)Oc1ccc(N=Nc2ccc([N+](=O)[O-])cc2S(C)(=O)=O)c2c(NS(=O)(=O)c3cccc(S(N)(=O)=O)c3)cccc12` [XX] belongs “+222 mV”.

In the case of `CN(CC1=C(c2cccc([N+](=O)[O-])c2)C(=O)C2=C(CCCC2)C1=O)C(=O)Oc1ccc2c3c(cccc13)C(=O)C=C2` [XXXII], the E1/2 result is “+214 mV”. Same read-out and setting: as for `CCCCCCCCCCC(=O)c1ccc(C2=C(CN(C)C(=O)Oc3ccc(N=Nc4ccc([N+](=O)[O-])cc4S(C)(=O)=O)c4c(NS(=O)(=O)c5cccc(S(N)(=O)=O)c5)cccc34)C(=O)C3=C(CCCC3)C2=O)cc1` [XII], the entry is “+206 mV”. Still for that read-out and setting: to `CN(CC1=CC(=O)C2=C(CCCC2)C1=O)C(=O)Oc1ccc(N=Nc2ccc([N+](=O)[O-])cc2S(C)(=O)=O)c2c(NS(=O)(=O)c3cccc(S(N)(=O)=O)c3)cccc12` [XV] belongs “+213 mV”; to `CN(CC1=C(c2ccc(C(=O)O)cc2)C(=O)C2=C(CCCC2)C1=O)C(=O)Oc1ccc2c3c(cccc13)C(=O)C=C2` [RIND Compound XXXV], “+220 mV”. For the molecule `CN(CC1=C(c2cc(Cl)ccc2Cl)C(=O)C2=C(CCC2)C1=O)C(=O)Oc1ccc2c3c(cccc13)C(=O)C=C2` [XXXI], the E1/2 result was “+236 mV”.

As to `CCCCCCCCCCCCN(CC1=C(c2ccc(C#N)cc2)C(=O)C2=C(CCCC2)C1=O)C(=O)Oc1ccc(N=Nc2ccc([N+](=O)[O-])cc2S(C)(=O)=O)c2c(NS(=O)(=O)c3cccc(S(N)(=O)=O)c3)cccc12` [XVI], the E1/2 entry was “+220 mV”. Same read-out and setting: as for `Cc1cc(=O)oc2cc(OC(=O)N(C)CC3=C(c4cccc([N+](=O)[O-])c4)C(=O)C4=C(CCCC4)C3=O)ccc12` [XXIII], the entry is “+214 mV”; as for `COc1cccc(C2=C(CN(C)C(=O)Oc3ccc(N=Nc4ccc([N+](=O)[O-])cc4S(C)(=O)=O)c4c(NS(=O)(=O)c5cccc(S(N)(=O)=O)c5)cccc34)C(=O)C3=C(CCCC3)C2=O)c1` [X], “+154 mV”. The same measure, in the same setting: as for `CN(CC1=C(c2ccc(C#N)cc2)C(=O)C2=C(CCCC2)C1=O)C(=O)Oc1ccc2c3c(cccc13)C(=O)C=C2` [XXIX], the entry is “+220 mV”; as for `CN(CC1=C(c2ccc(Br)cc2)C(=O)C2=C(CCCC2)C1=O)C(=O)Oc1ccc(N=Nc2ccc([N+](=O)[O-])cc2S(C)(=O)=O)c2c(NS(=O)(=O)c3cccc(S(N)(=O)=O)c3)cccc12` [XIV], “+192 mV”. Same read-out and setting: to `CN(CC1=C(c2ccc([N+](=O)[O-])cc2)C(=O)C2=C(CCCC2)C1=O)C(=O)Oc1ccc2c3c(cccc13)C(=O)C=C2` [XXXIII] belongs “+236 mV”; to `CN(CC1=C(c2cccc([N+](=O)[O-])c2)C(=O)C2=C(CCCC2)C1=O)C(=O)Oc1ccc(N=Nc2ccc([N+](=O)[O-])cc2S(C)(=O)=O)c2c(NS(=O)(=O)c3cccc(S(N)(=O)=O)c3)cccc12` [V], “+214 mV”.

Staying with this data set, now noted: quinone nucleus with H in place of the releasing group; denoted *: measured in acetonitrile, saturated calomel electrode.
For the molecule `CCCCCCCCCCNS(=O)(=O)c1ccc(C(C)C2=C(CN(C)C(=O)Oc3ccc(N=Nc4ccc([N+](=O)[O-])cc4S(C)(=O)=O)c4c(NS(=O)(=O)c5cccc(S(N)(=O)=O)c5)cccc34)C(=O)C(C(C)c3ccc(S(=O)(=O)NCCCCCCCCCC)cc3)=C(CN(C)C(=O)Oc3ccc(N=Nc4ccc([N+](=O)[O-])cc4S(C)(=O)=O)c4c(NS(=O)(=O)c5cccc(S(N)(=O)=O)c5)cccc34)C2=O)cc1` (stereo not shown) [I], the E1/2 is -528 mV. As for `CCCCCCCCCCNS(=O)(=O)c1ccc(C(C)C2=C(CN(C)C(=O)Oc3ccc4c(C)cc(=O)oc4c3)C(=O)C(C(C)c3ccc(S(=O)(=O)NCCCCCCCCCC)cc3)=C(CN(C)C(=O)Oc3ccc4c(C)cc(=O)oc4c3)C2=O)cc1` (stereo not shown) [XXII], the E1/2 is on record as -528 mV.

As to `CN(CC1=C(c2ccccc2)C(=O)C(CN(C)C(=O)Oc2ccc(N=Nc3ccc([N+](=O)[O-])cc3S(C)(=O)=O)c3c(NS(=O)(=O)c4cccc(S(N)(=O)=O)c4)cccc23)=C(c2ccccc2)C1=O)C(=O)Oc1ccc(N=Nc2ccc([N+](=O)[O-])cc2S(C)(=O)=O)c2c(NS(=O)(=O)c3cccc(S(N)(=O)=O)c3)cccc12` [IV], the E1/2 is -460 mV. The same measure, in the same setting: as for `CCCCCCCCCCNS(=O)(=O)c1ccc(C(C)C2=C(CN(C)C(=O)Oc3ccc(N=Nc4cccc(S(N)(=O)=O)c4)c4c(NS(C)(=O)=O)cccc34)C(=O)C(C(C)c3ccc(S(=O)(=O)NCCCCCCCCCC)cc3)=C(CN(C)C(=O)Oc3ccc(N=Nc4cccc(S(N)(=O)=O)c4)c4c(NS(C)(=O)=O)cccc34)C2=O)cc1` (stereo not shown) [XXI], the figure is -528 mV.
